What is called IC50 is the concentration that gives 50% inhibition. Read a high IC50 as lower potency.

Molecules are shown by their SMILES.

The text below walks through data of patent publication US10414767B2, “Deuterated quinazolinone compound and pharmaceutical composition comprising same” (Suzhou Zelgen Biopharmaceuticals Co., Ltd., priority 2014, dated 2019).

The assay addresses PI3Kδ kinase (Homo sapiens, UniProt O00329). In words: In vitro pharmacodynamics evaluation to PI3K kinases.

Sequence of PI3Kδ kinase (O00329 whole entry): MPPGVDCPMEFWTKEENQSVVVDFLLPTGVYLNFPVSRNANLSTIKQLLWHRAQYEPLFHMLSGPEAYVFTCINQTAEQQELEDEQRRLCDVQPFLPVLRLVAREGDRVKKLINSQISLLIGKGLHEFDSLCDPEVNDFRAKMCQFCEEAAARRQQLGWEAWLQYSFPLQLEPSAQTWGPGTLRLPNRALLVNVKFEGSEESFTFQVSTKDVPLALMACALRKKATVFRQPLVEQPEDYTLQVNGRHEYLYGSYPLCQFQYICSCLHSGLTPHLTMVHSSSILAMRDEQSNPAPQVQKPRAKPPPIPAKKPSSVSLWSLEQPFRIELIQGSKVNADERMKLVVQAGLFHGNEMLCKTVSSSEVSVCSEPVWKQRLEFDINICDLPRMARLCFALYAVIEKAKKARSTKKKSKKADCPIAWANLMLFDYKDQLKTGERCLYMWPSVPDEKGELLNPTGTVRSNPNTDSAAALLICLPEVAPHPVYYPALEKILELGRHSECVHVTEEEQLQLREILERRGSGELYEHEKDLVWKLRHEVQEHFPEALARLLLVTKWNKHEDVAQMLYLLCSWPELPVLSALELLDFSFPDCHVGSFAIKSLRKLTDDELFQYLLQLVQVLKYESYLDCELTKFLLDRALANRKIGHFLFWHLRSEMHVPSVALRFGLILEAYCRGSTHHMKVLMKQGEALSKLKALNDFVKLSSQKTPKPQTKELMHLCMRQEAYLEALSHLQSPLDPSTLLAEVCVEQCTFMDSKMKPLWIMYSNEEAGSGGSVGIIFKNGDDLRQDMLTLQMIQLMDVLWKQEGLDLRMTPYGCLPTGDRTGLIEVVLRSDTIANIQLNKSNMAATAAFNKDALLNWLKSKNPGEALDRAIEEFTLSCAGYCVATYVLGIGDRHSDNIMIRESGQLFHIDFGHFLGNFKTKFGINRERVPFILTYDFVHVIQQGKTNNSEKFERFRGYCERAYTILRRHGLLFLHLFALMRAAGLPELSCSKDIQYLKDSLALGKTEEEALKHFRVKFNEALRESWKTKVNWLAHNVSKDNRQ
Sequence of PI3Kδ kinase (P27986 whole entry partner): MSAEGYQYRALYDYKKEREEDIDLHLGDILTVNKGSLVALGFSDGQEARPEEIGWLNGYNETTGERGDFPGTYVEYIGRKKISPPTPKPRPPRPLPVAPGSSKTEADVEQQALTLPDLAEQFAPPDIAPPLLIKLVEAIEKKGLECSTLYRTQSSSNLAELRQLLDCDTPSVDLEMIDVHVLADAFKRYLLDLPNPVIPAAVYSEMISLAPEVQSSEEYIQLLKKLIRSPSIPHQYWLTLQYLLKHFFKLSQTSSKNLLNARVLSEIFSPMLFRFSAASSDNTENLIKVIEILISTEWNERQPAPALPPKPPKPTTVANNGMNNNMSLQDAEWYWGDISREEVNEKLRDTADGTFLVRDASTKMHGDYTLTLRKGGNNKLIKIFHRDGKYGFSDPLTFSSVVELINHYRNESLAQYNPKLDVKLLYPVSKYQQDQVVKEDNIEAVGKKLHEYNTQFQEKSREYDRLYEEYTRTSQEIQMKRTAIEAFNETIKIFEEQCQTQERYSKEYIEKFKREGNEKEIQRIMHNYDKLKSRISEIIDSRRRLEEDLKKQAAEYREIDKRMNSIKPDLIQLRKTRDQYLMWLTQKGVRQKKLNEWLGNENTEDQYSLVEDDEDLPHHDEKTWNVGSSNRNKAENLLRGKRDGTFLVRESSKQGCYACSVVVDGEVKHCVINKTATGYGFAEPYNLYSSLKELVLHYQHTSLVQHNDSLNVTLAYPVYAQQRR

Take `[2H]C([2H])([2H])[C@H](Nc1ncnc2[nH]cnc12)c1nc2ccc(F)cc2c(=O)n1-c1ccccc1` [Example 10, (S)-2-(1-(9H-purin-6-yl-amino)-2,2,2-d3-ethyl)-6-fluoro-3-phenyl quinazoline-4(3H)-ketone]: the IC50 was less than 20 nM. The result for `[2H][C@@](C)(Nc1ncnc2[nH]cnc12)c1nc2ccc(F)cc2c(=O)n1-c1ccccc1` [Example 8, (S)-2-(1-(9H-purin-6-yl-amino)-1-d-ethyl)-6-fluoro-3-phenyl quinazoline-4(3H)-ketone] reads less than 20 nM; that for `[2H]C([2H])([2H])[C@]([2H])(Nc1ncnc2[nH]cnc12)c1nc2ccc(F)cc2c(=O)n1-c1ccccc1` [Example 9, (S)-2-(1-(9H-purin-6-yl-amino)-1,2,2,2-d4-ethyl)-6-fluoro-3-phenyl quinazoline-4(3H)-ketone], less than 20 nM.
